{
  "source": "paper PMC7109250",
  "about": "“Cloning and Functional Characterization of Three Odorant Receptors From the Chinese Citrus fly Bactrocera minax (Diptera: Tephritidae)” (Frontiers in Physiology, 2020)",
  "data": [
    {"biological_target": "T1, BminOR16 (Bactrocera minax, UniProt A0A6N0A5X5)", "T1 construct": "gene OR16; full-length ORF (404 amino acid residues), GenBank MN537977; with BminOrco", "T1 sequence (A0A6N0A5X5 1-405)": "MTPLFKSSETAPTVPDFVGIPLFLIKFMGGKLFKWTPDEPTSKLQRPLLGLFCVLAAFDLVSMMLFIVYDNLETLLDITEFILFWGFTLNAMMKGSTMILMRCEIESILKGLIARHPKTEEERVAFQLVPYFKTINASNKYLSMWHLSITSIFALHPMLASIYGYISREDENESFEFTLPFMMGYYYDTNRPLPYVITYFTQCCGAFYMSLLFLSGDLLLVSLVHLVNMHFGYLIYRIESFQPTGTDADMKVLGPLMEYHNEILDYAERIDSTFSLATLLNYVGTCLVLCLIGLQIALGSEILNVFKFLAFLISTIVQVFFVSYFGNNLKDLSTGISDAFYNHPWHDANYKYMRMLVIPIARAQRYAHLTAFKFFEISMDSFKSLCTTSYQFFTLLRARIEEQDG", "T1 sequence (A0A3G2LEL3 1-517 partner)": "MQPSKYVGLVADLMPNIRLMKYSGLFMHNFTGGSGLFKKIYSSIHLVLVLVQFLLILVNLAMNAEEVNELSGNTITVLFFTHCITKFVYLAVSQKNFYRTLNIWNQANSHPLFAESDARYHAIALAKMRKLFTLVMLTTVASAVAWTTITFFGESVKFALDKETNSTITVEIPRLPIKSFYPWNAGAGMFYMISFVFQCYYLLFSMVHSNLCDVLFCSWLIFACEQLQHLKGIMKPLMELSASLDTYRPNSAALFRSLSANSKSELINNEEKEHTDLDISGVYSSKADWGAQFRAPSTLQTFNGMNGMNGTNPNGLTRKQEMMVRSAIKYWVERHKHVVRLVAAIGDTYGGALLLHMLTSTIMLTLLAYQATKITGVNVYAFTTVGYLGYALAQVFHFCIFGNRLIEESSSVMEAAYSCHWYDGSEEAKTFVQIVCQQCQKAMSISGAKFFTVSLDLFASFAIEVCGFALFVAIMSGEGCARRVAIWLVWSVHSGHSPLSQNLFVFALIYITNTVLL", "assay": "two-electrode voltage clamp in Xenopus oocytes, mean current at […]", "type": "cell-based", "units": {"two-electrode voltage clamp in Xenopus oocytes, mean current at 10^-4 M": "nA"}, "values": [
      {"smiles": "CCCCCCCCCCCO", "note": "[compound 35, undecanol]", "two-electrode voltage clamp in Xenopus oocytes, mean current at 10^-4 M": 87}
    ]},
    {"biological_target": "T2, BminOR12 (Bactrocera minax, UniProt A0A6H1V5Y2)", "T2 construct": "gene OR12; full-length ORF (415 amino acid residues), GenBank MN855530; with BminOrco", "T2 sequence (A0A6H1V5Y2 1-415)": "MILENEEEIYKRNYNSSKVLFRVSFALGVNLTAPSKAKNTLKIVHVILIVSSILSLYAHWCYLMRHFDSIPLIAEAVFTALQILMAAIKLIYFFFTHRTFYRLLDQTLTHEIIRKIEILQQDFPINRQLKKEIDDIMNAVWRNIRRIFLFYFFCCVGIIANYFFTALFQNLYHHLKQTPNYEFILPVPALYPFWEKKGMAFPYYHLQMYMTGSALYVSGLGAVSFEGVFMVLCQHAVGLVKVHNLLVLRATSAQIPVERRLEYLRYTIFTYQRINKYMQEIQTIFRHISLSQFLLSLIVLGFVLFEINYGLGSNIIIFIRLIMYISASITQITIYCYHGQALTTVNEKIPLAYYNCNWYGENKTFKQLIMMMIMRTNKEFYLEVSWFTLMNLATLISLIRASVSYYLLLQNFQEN", "T2 sequence (A0A3G2LEL3 1-517 partner)": "T1 sequence (A0A3G2LEL3 1-517 partner)", "assay": "two-electrode voltage clamp in Xenopus oocytes, mean current at […]", "type": "cell-based", "description": "The respective mean response values of these are | BminOR12/BminOrco responded to eight compounds: benzyl alcohol, (S)-(+)-carvone, 1-octanol, butyl propionate, butyl acrylate", "units": {"two-electrode voltage clamp in Xenopus oocytes, mean current at 10^-4 M": "nA"}, "values": [
      {"smiles": "CCCCCCCCO", "note": "[compound 37, 1-octanol]", "two-electrode voltage clamp in Xenopus oocytes, mean current at 10^-4 M": 46},
      {"smiles": "CC/C=C\\CCOC(C)=O", "note": "[compound 43, (Z)-3-hexenyl acetate]", "two-electrode voltage clamp in Xenopus oocytes, mean current at 10^-4 M": 91},
      {"smiles": "COC(=O)c1ccccc1O", "note": "[compound 10, methyl salicylate]", "two-electrode voltage clamp in Xenopus oocytes, mean current at 10^-4 M": 138},
      {"smiles": "O=Cc1ccccc1", "note": "[compound 9, benzaldehyde]", "two-electrode voltage clamp in Xenopus oocytes, mean current at 10^-4 M": 94},
      {"smiles": "C=CC(=O)OCCCC", "note": "[compound 40, butyl acrylate]", "two-electrode voltage clamp in Xenopus oocytes, mean current at 10^-4 M": 63},
      {"smiles": "CCCCOC(=O)CC", "note": "[compound 31, butyl propionate]", "two-electrode voltage clamp in Xenopus oocytes, mean current at 10^-4 M": 60},
      {"smiles": "C=C(C)[C@H]1CC=C(C)C(=O)C1", "note": "[compound 15, (S)-(+)-carvone]", "two-electrode voltage clamp in Xenopus oocytes, mean current at 10^-4 M": 34},
      {"smiles": "OCc1ccccc1", "note": "[compound 16, benzyl alcohol]", "two-electrode voltage clamp in Xenopus oocytes, mean current at 10^-4 M": 33}
    ]},
    {"biological_target": "T3, BminOR3 (Bactrocera minax, UniProt A0A6N0A5L8)", "T3 construct": "gene OR5; full-length ORF (450 amino acid residues), GenBank MN537976; with BminOrco", "T3 sequence (A0A6N0A5L8 1-451)": "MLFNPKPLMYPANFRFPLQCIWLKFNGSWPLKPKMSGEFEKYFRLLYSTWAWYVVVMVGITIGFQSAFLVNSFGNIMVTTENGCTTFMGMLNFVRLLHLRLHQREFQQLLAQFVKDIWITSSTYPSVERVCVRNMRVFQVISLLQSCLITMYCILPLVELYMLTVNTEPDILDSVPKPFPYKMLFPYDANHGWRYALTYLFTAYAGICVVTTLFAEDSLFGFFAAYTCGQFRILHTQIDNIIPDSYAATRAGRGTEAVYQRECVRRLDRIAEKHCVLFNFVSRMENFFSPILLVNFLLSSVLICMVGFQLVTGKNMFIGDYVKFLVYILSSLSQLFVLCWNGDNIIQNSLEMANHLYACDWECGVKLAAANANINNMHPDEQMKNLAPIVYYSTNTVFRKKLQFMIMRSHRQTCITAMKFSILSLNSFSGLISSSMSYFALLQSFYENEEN", "T3 sequence (A0A3G2LEL3 1-517 partner)": "T1 sequence (A0A3G2LEL3 1-517 partner)", "assay": "two-electrode voltage clamp in Xenopus oocytes co-expressing BminOR3/BminOrco, dose-response", "type": "cell-based", "description": "two-electrode voltage clamp in Xenopus oocytes co-expressing BminOR3/BminOrco, dose-response on BminOR3 | Dose-response curve of BminOR3/BminOrco Xenopus oocytes to 1-octen-3-ol.", "units": {"EC50": "nM"}, "values": [
      {"smiles": "C=CC(O)CCCCC", "note": "(stereo not shown) [compound 2, 1-octen-3-ol]", "EC50": 347}
    ]}
  ]
}
